According to patent US20020197294A1, “PYRONE COMPOUNDS AND THERE USE” (SUMITOMO CHEMICAL COMPANY, LIMITED, priority 2001, published 2002):

How the values were obtained:
Type in all cases: in vivo
[1] = system: houseflies (Musca domestics); assay: Housefly topical application test (Test Example 3); details: 0.5 μl of 30 g/l acetone solution at back thoracic region (about 15 μg/one housefly), female houseflies, after 24 hours, three replicate
Procedure: A solution (30 g/l) for each of the present compound (A) and the reference compound was prepared by diluting with acetone.
The acetone solution (0.5 μl) was applied to 10 female houseflies (Musca domestics) at the back thoracic region (active ingredient: about 15 μg/one housefly) by a microsyringe and the houseflies were left with water and feed in a plastic cup. After 24 hours, the mortality (%) was examined (three replicate).

[2] = system: houseflies (Musca domestics); assay: Housefly filter paper test (Test Example 2); details: 0.7 ml of 500 ppm aqueous dilution on filter paper, female houseflies, after one day
Procedure: Filter paper of 5.5 cm in diameter was laid in the bottom of a polyethylene cup (diameter: 5.5 cm). After 0.7 ml of a 500 ppm aqueous dilution obtained by diluting the formulation of the test compound prepared according to the formulation example 1 was dropped on the filter paper, 30 mg of sucrose was scattered. Ten female houseflies (Musca domestics) were left in the cup with a cover. After one day, the mortality of the houseflies was examined.

[3] = system: German cockroaches (Blattella germanica); assay: German cockroach filter paper test (Test Example 1); details: 144 h, 0.7 ml of 500 ppm aqueous dilution on filter paper, male German cockroaches, after six days
Procedure: Filter paper of 5.5 cm in diameter was laid in the bottom of a polyethylene cup (diameter: 5.5 cm). After 0.7 ml of a 500 ppm aqueous dilution obtained by diluting the formulation of the test compound prepared according to the formulation example 1 was dropped on the filter paper, 30 mg of sucrose was scattered. Two male German cockroaches (Blattella germanica) were left in the polyethylene cup with a cover. After six days, the mortality of the German cockroaches was examined.

Structure (SMILES)	Mortality (%) [1] [%]	mortality of the houseflies [2] [%]	mortality at 500 ppm [3] [%]
CCCC(=O)c1c(O)cc(C)oc1=O [The Reference compound, reference compound]	3.3		
Cc1cc(O)c(C(=O)CCC(F)(F)F)c(=O)o1 [the present compound (A), 4-hydroxy-6-methyl-3-(4,4,4-trifluorobutyryl)-2-pyrone]	100	100	100
Cc1cc(O)c(C(=O)CC(C)C(F)(F)F)c(=O)o1 (centres unmarked) [the present compound (B), 4-hydroxy-6-methyl-3-(3-trifluoromethylbutyryl)-2-pyrone]		100	100
Cc1cc(O)c(C(=O)CC(C(F)(F)F)C(F)(F)F)c(=O)o1 [the present compound (C), 4-hydroxy-6-methyl-3-(3-trifluoromethyl-4,4,4-trifluorobutyryl) -2-pyrone]		100	100
